The results in this text go back to PubChem BioAssay AID624001 (Vanderbilt Specialized Chemistry Center, 2012).

This experiment has as its target Phospholipase D1 (Homo sapiens) + Phospholipase D1 (Homo sapiens) (UniProt Q13393+Q13393). Nature of the experiment: phospholipase D1 inhibition, isolated enzyme – biochemical, Lib32, assay 3A, dose response (AID 624001). The following applies: purified PLD1 enzyme activity assay.

Sequence of Phospholipase D1 (Homo sapiens) + Phospholipase D1 (Homo sapiens) (Q13393 whole entry, looked up): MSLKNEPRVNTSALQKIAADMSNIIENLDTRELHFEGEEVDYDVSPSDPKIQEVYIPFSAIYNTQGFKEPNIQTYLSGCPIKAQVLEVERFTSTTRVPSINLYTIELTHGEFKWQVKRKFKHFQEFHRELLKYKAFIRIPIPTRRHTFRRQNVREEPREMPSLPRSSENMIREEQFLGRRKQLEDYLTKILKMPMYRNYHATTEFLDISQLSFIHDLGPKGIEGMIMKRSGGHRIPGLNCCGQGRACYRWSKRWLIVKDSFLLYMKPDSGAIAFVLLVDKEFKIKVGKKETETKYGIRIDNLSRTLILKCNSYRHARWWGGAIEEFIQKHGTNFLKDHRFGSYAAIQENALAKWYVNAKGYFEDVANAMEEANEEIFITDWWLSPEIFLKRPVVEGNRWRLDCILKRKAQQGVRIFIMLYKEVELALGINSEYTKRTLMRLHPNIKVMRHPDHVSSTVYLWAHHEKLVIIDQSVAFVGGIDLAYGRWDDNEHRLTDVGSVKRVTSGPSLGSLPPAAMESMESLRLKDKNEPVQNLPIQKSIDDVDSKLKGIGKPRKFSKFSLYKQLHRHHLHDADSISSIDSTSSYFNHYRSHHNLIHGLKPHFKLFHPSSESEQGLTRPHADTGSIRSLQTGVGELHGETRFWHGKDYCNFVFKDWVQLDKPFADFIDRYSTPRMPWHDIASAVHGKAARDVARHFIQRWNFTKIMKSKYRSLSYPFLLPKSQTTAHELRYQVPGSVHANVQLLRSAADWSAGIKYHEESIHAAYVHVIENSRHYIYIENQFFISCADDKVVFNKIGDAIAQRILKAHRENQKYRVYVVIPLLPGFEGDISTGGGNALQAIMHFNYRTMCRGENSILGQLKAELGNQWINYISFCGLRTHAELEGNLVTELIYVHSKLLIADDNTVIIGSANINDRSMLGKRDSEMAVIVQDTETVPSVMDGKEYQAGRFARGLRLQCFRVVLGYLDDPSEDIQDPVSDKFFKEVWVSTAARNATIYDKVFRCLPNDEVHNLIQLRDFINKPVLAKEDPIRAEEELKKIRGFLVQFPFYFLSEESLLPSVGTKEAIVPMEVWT
Sequence of Phospholipase D1 (Homo sapiens) + Phospholipase D1 (Homo sapiens) (Q13393 whole entry, looked up): as above

In the case of `COc1cc(C(=O)NCCN2CCC3(CC2)C(=O)NCN3c2cccc(F)c2)cc(OC)c1OC`, the half-inhibitory concentration (IC50) was 20 µM.

As a reminder, the IC50 is the concentration needed to halve the response being measured.
